The record followed here is patent publication US20250154109A1, “SODIUM CHANNEL BLOCKING COMPOUNDS, DERIVATIVES THEREOF, AND METHODS OF THEIR USE” (LATIGO BIOTHERAPEUTICS, INC, priority 2022, published 2025).

For this experiment, the target named is human Nav1.8 (Homo sapiens, UniProt Q9Y5Y9). Nature of the experiment: SyncroPatch384PE assay (automated patch clamp). It is filed as cell-based. Particulars: human Nav1.8/b3 CHO cells. Background: The patch-clamp technique gives a direct electrical read-out from membranes.
Where [1] appears, read: inactivated state block (P2 measurement), read-out: P2 IC50.
Setting [2] is: resting state block (P1 measurement), read-out: P1 IC50.

Structures can show the parent of a compound that is named as a salt. Where two headings read alike, the source gives them in different places. Bounds are passed on as bounds.

human Nav1.8, sequence (Q9Y5Y9 whole entry): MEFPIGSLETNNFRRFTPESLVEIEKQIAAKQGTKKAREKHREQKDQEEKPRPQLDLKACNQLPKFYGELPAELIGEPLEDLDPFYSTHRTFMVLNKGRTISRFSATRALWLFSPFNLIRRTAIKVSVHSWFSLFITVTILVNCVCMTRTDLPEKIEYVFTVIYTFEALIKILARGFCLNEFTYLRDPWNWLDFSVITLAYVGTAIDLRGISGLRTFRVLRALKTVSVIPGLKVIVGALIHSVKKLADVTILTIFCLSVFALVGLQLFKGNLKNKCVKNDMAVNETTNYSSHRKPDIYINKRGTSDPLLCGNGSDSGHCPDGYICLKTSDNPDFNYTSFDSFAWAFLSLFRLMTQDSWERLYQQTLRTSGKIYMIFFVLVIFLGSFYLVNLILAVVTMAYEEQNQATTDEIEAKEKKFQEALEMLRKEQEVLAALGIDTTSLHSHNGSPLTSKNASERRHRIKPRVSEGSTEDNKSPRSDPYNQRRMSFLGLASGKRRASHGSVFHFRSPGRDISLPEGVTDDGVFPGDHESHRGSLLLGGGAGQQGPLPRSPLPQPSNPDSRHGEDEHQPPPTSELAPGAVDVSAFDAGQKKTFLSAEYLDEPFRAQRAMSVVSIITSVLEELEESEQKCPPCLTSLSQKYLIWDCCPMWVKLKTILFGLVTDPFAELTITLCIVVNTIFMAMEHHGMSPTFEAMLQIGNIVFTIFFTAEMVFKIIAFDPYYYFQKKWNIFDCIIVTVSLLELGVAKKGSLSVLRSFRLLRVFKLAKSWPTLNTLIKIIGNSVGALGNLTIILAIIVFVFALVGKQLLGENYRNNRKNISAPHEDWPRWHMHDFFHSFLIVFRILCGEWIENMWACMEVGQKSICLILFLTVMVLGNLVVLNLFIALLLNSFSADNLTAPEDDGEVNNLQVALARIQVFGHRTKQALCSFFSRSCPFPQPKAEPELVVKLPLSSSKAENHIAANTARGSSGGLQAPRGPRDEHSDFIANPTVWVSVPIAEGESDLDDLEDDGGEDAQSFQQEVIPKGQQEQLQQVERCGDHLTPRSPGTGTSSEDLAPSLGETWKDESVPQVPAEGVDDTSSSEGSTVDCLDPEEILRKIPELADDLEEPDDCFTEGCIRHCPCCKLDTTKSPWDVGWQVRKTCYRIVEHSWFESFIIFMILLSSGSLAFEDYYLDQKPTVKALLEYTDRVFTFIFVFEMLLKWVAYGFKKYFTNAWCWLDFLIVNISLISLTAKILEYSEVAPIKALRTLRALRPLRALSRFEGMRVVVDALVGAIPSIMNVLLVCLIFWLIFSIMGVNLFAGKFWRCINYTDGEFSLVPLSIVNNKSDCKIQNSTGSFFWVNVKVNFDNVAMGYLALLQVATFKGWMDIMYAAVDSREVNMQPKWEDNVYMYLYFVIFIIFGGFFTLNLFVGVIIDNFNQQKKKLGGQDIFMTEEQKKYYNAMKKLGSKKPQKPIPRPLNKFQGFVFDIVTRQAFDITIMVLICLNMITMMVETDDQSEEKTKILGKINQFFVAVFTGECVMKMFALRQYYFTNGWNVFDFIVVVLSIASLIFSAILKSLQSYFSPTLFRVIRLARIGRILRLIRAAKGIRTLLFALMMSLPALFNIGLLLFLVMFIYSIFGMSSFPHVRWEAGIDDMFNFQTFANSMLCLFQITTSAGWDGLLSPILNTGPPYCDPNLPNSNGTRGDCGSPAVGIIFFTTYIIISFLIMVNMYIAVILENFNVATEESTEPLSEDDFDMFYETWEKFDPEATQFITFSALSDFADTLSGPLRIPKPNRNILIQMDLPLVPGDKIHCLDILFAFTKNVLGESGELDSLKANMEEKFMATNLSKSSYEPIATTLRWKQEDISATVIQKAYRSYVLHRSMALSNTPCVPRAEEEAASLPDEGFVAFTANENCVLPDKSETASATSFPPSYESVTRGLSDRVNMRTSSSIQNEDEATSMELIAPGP

As usually defined, the IC50 is the concentration that inhibits the measured activity by half. Regarding `Cc1c(-c2cnn(C)c2)cnc(N2CCCC(F)(F)CC2)c1C(=O)Nc1cccc([S@@](C)(=O)=NC(=O)C2CNC2)c1` [Example 51, (R)-N-(3-(N-(azetidine-3-carbonyl)-S-methylsulfonimidoyl)phenyl)-2-(4,4-difluoroazepan-1-yl)-4-methyl-5-(1-methyl-1H-pyrazol-4-yl)nicotinamide formate], the 50% inhibitory concentration (IC50) runs as follows: under setting [1], 5 to 50 nM; under setting [2], 5 to 50 nM.

Take `Cc1c(-c2ccccc2)nnc(N2CCCC(F)(F)CC2)c1C(=O)Nc1cccc([S@@](C)(=N)=O)c1` [Example 117, (S)-3-(4,4-difluoroazepan-1-yl)-5-methyl-N-(3-(S-methylsulfonimidoyl)phenyl)-6-phenylpyridazine-4-carboxamide]: the IC50 lay in the range of 50 to 100 nM under setting [1] and 100 to 200 nM under setting [2].

As to `Cc1c(C#N)c(C(F)(F)F)nc(N2CCCC(F)(F)CC2)c1C(=O)Nc1cccc([S@@](C)(=O)=NC(=O)CCN)c1` [Example 58, (R)-N-(3-(N-(3-aminopropanoyl)-S-methylsulfonimidoyl)phenyl)-5-cyano-2-(4,4-difluoroazepan-1-yl)-4-methyl-6-(trifluoromethyl)nicotinamide formate], the half-inhibitory concentration (IC50) runs as follows: under setting [1], not above 5 nM; under setting [2], not above 5 nM.

Turning to `Cc1c(N2CC3(COC3)C2)nnc(N2CCCC(F)(F)CC2)c1C(=O)Nc1cccc([S@](C)(=N)=O)c1` [Example 140, (R)-3-(4,4-difluoroazepan-1-yl)-5-methyl-N-(3-(S-methylsulfonimidoyl)phenyl)-6-(2-oxa-6-azaspiro[3.3]heptan-6-yl)pyridazine-4-carboxamide], the IC50 runs as follows: under setting [1], more than 200 nM; under setting [2], more than 200 nM.

On to `C[S@@](=N)(=O)c1cccc(NC(=O)c2cc(C(F)(F)F)nnc2N2CCCC(F)(F)CC2)c1` [Example 18, (R)-3-(4,4-difluoroazepan-1-yl)-N-(3-(S-methylsulfonimidoyl)phenyl)-6-(trifluoromethyl)pyridazine-4-carboxamide], for which the concentration for half-maximal inhibition (IC50) was 100 to 200 nM under setting [1] and more than 200 nM under setting [2].

For the compound `Cc1c(-c2cc(F)cc(F)c2)cnc(N2CCCC(F)(F)CC2)c1C(=O)Nc1cccc([S@](C)(=N)=O)c1` [Example 61, (R)-2-(4,4-difluoroazepan-1-yl)-5-(3,5-difluorophenyl)-4-methyl-N-(3-(S-methylsulfonimidoyl)phenyl)nicotinamide], the IC50 is not above 5 nM under setting [1] and not above 5 nM under setting [2].

Take `Cc1c(-c2cnn(C(F)(F)F)c2)cnc(N2CCCC(F)(F)CC2)c1C(=O)Nc1cccc([S@](C)(=N)=O)c1` [Example 176, (R)-2-(4,4-difluoroazepan-1-yl)-4-methyl-N-(3-(S-methylsulfonimidoyl)phenyl)-5-(1-(trifluoromethyl)-1H-pyrazol-4-yl)nicotinamide]: the IC50 is, setting by setting: under setting [1], not above 5 nM; under setting [2], not above 5 nM.

In the case of `Cc1nn(C)cc1-c1cnc(N2CCCC(F)(F)CC2)c(C(=O)Nc2cccc([S@](C)(=N)=O)c2)c1C` [Example 146, (R)-2-(4,4-difluoroazepan-1-yl)-5-(1,3-dimethyl-1H-pyrazol-4-yl)-4-methyl-N-(3-(S-methylsulfonimidoyl)phenyl)nicotinamide], the IC50 is more than 200 nM under setting [1] and more than 200 nM under setting [2].

As for `Cc1c(-c2cnn(C)c2)cnc(N2CCCC(F)(F)CC2)c1C(=O)Nc1cccc([S@@](C)(=O)=NC(=O)[C@H](C)N)c1` [Example 76, N-(3-((R)-N-(L-alanyl)-S-methylsulfonimidoyl)phenyl)-2-(4,4-difluoroazepan-1-yl)-4-methyl-5-(1-methyl-1H-pyrazol-4-yl)nicotinamide formate], the IC50 runs as follows: under setting [1], not above 5 nM; under setting [2], not above 5 nM.

Regarding `Cc1c(C(F)(F)F)cnc(N2CCCC(F)(F)CC2)c1C(=O)Nc1cccc([S@](C)(=N)=O)c1` [Example 164, (R)-2-(4,4-difluoroazepan-1-yl)-4-methyl-N-(3-(S-methylsulfonimidoyl)phenyl)-5-(trifluoromethyl)nicotinamide], the IC50 under setting [1] was not above 5 nM and the half-inhibitory concentration (IC50) under setting [2] is not above 5 nM.

As to `Cc1c(C(F)(F)F)nnc(N2CCCCCC2)c1C(=O)Nc1cccc([S@@](C)(=N)=O)c1` [Example 11, (S)-3-(azepan-1-yl)-5-methyl-N-(3-(S-methylsulfonimidoyl)phenyl)-6-(trifluoromethyl)pyridazine-4-carboxamide], the IC50 lay in the range of 100 to 200 nM under setting [1] and 100 to 200 nM under setting [2].

Take `Cc1c(-c2cnn(C)c2)cnc(N2CCCC(F)(F)CC2)c1C(=O)Nc1cccc(S(=N)(N)=O)c1` (stereo not shown) [Example 165, 2-(4,4-difluoroazepan-1-yl)-4-methyl-5-(1-methyl-1H-pyrazol-4-yl)-N-(3-sulfamidimidoylphenyl)nicotinamide]: the IC50 fell in the range of 5 to 50 nM under setting [1] and 5 to 50 nM under setting [2].

On to `Cc1c(Br)cnc(N2CCCC(F)(F)CC2)c1C(=O)Nc1cccc(S(C)(=N)=O)c1` (stereo not shown) [Example 86, 5-bromo-2-(4,4-difluoroazepan-1-yl)-4-methyl-N-(3-(S-methylsulfonimidoyl)phenyl)nicotinamide], for which the 50% inhibitory concentration (IC50) is not above 5 nM under setting [1] and not above 5 nM under setting [2].

Regarding `Cc1c(-c2ccccc2)cnc(N2CCCC(F)(F)CC2)c1C(=O)Nc1cccc(S(C)(=N)=O)c1` (stereo not shown) [Example 42, 2-(4,4-Difluoroazepan-1-yl)-4-methyl-N-(3-(S-methylsulfonimidoyl)phenyl)-5-phenylnicotinamide], the concentration for half-maximal inhibition (IC50) under setting [1] was not above 5 nM and the 50% inhibitory concentration (IC50) under setting [2] was not above 5 nM.

On to `Cc1nc(N2CCCC(F)(F)CC2)c(C(=O)Nc2cccc([S@@](C)(=N)=O)c2)cc1C(F)(F)F` [Example 5, (S)-2-(4,4-Difluoroazepan-1-yl)-6-methyl-N-(3-(S-methylsulfonimidoyl)phenyl)-5-(trifluoromethyl)nicotinamide], for which the 50% inhibitory concentration (IC50) was not above 5 nM under setting [1] and not above 5 nM under setting [2].

Take `Cc1cc(C#N)nc(N2CCCC(F)(F)CC2)c1C(=O)Nc1ccnc([S@](C)(=N)=O)c1` [Example 204, (R)-6-cyano-2-(4,4-difluoroazepan-1-yl)-4-methyl-N-(2-(S-methylsulfonimidoyl)pyridin-4-yl)nicotinamide]: the IC50 under setting [1] lay within 5 to 50 nM and the IC50 under setting [2] was in the range of 5 to 50 nM.

On to `Cc1c(C2CNC2)cnc(N2CCCC(F)(F)CC2)c1C(=O)Nc1cccc(S(C)(=N)=O)c1` (stereo not shown) [Example 173, 5-(azetidin-3-yl)-2-(4,4-difluoroazepan-1-yl)-4-methyl-N-(3-(S-methylsulfonimidoyl)phenyl)nicotinamide], for which the half-inhibitory concentration (IC50) under setting [1] lay in the range of 100 to 200 nM and the IC50 under setting [2] was more than 200 nM.

As for `C=CCCc1ccc(C(=O)Nc2cccc(S(C)(=N)=O)c2)c(N2CCCC(F)(F)CC2)n1` (stereo not shown) [Example 13, 6-(3-Buten-1-yl)-2-(4,4-difluoroazepan-1-yl)-N-(3-(S-methylsulfonimidoyl)phenyl)nicotinamide], the IC50 was not above 5 nM under setting [1] and not above 5 nM under setting [2].

For the compound `Cc1nc(N2CCNCC2)nc(N2CCCC(F)(F)CC2)c1C(=O)Nc1cccc([S@](C)(=N)=O)c1` [Example 161, (R)-4-(4,4-difluoroazepan-1-yl)-6-methyl-N-(3-(S-methylsulfonimidoyl)phenyl)-2-(piperazin-1-yl)pyrimidine-5-carboxamide], the IC50 is more than 200 nM under setting [1] and more than 200 nM under setting [2].

Take `Cc1c(-c2ccc(F)cn2)cnc(N2CCCC(F)(F)CC2)c1C(=O)Nc1cccc(S(C)(=N)=O)c1` (stereo not shown) [Example 112, 6(4,4-difluoroazepan-1-yl)-5-fluoro-4methyl-N-(3-(S-methylsulfonimidoyl)phenyl)-[2,3bipyridine]-5carboxamide]: the IC50 reads like this: under setting [1], 50 to 100 nM; under setting [2], 50 to 100 nM.

Consider `Cc1c(-c2ccn(C)n2)cnc(N2CCCC(F)(F)CC2)c1C(=O)Nc1cccc(S(C)(=N)=O)c1` (stereo not shown) [Example 89, 2-(4,4-difluoroazepan-1-yl)-4-methyl-5-(1-methyl-1H-pyrazol-3-yl)-N-(3-(S-methylsulfonimidoyl)phenyl)nicotinamide], for which the IC50 is, setting by setting: under setting [1], 100 to 200 nM; under setting [2], 100 to 200 nM.

Regarding `Cc1c(C#N)c(C#N)nc(N2CCCC(F)(F)CC2)c1C(=O)Nc1cccc([S@](C)(=N)=O)c1` [Example 170, (R)-5,6-dicyano-2-(4,4-difluoroazepan-1-yl)-4-methyl-N-(3-(S-methylsulfonimidoyl)phenyl)nicotinamide], the concentration for half-maximal inhibition (IC50) runs as follows: under setting [1], 5 to 50 nM; under setting [2], 5 to 50 nM.

For the compound `Cc1nc(N2CCCC(F)(F)CC2)c(C(=O)Nc2cccc([S@](C)(=N)=O)c2)c(C)c1Br` [Example 172, (R)-5-bromo-2-(4,4-difluoroazepan-1-yl)-4,6-dimethyl-N-(3-(S-methylsulfonimidoyl)phenyl)nicotinamide], the IC50 under setting [1] is not above 5 nM and the IC50 under setting [2] was not above 5 nM.

Regarding `Cc1c(-c2cnn(C)c2)cnc(N2CCCC(F)(F)CC2)c1C(=O)Nc1cccc([S@@](C)(=O)=NC(=O)C(N)C(F)(F)F)c1` (stereo partly drawn) [Example 174, N-(3-((R)-N-(2-amino-3,3,3-trifluoropropanoyl)-S-methylsulfonimidoyl)phenyl)-2-(4,4-difluoroazepan-1-yl)-4-methyl-5-(1-methyl-1H-pyrazol-4-yl)nicotinamide], the IC50 is, setting by setting: under setting [1], 5 to 50 nM; under setting [2], 5 to 50 nM.

`Cc1c(C(F)(F)F)nnc(N2CCCC(F)(F)CC2)c1C(=O)Nc1cccc([S@@](C)(=O)=NC(=O)CO)c1` [Example 232, (R)-3-(4,4-difluoroazepan-1-yl)-N-(3-(N-(2-hydroxyacetyl)-S-methylsulfonimidoyl)phenyl)-5-methyl-6-(trifluoromethyl)pyridazine-4-carboxamide]: the IC50 reads like this: under setting [1], not above 5 nM; under setting [2], not above 5 nM.

As to `Cc1c(Cl)c(C(F)(F)F)nc(N2CCCC(F)(F)CC2)c1C(=O)Nc1cccc(S(C)(=N)=O)c1` (stereo not shown) [Example 41, 5-Chloro-2-(4,4-difluoroazepan-1-yl)-4-methyl-N-(3-(S-methylsulfonimidoyl)phenyl)-6-(trifluoromethyl)nicotinamide], the IC50 runs as follows: under setting [1], not above 5 nM; under setting [2], not above 5 nM.
